Source: patent US7851467B2, “Carbamate compounds as 5-HT4 receptor agonists” (Theravance, Inc., priority 2005, dated 2010)

System: Caco-2 (colon, adenocarcinoma; human) cell monolayer
Experiment: Caco-2 permeation assay (in vitro model of oral bioavailability)
Format: in vitro ADME
Details: 100 μM test compound, 37° C., 60 min
Procedure: Assay 5: In Vitro Model of Oral Bioavailability: Caco-2 Permeation Assay
The Caco-2 permeation assay was performed to model the ability of test compounds to pass through the intestine and get into the blood stream after oral administration. The rate at which test compounds in solution permeate a cell monolayer designed to mimic the tight junction of human small intestinal monolayers was determined.
Caco-2 (colon, adenocarcinoma; human) cells were obtained from ATCC (American Type Culture Collection; Rockville, Md.). For the permeation study, cells were seeded at a density of 63,000 cells/cm^2 on pre-wetted transwells polycarbonate filters (Costar; Cambridge, Mass.). A cell monolayer was formed after 21 days in culture. Following cell culture in the transwell plate, the membrane containing the cell monolayer was detached from the transwell plate and inserted into the diffusion chamber (Costar; Cambridge, Mass.). The diffusion chamber was inserted into the heating block which was equipped with circulating external, thermostatically regulated 37° C. water for temperature control. […]
The permeation study was performed with test compound concentrations at 100 μM and with ^14C-mannitol to monitor the integrity of the monolayer. […] Samples were analyzed by HPLC or liquid scintillation counting for test compound and mannitol concentrations. The permeation coefficient (Kp) in cm/sec was calculated. […]

SMILES: CC(C)n1c(=O)n(C(=O)N[C@H]2C[C@H]3CC[C@@H](C2)N3CCCOC(=O)N2CCN(C(=O)C3CCCO3)CC2)c2ccccc21 (stereo partly drawn) [Example 1, 4-(tetrahydrofuran-2-carbonyl)piperazine-1-carboxylic acid 3-{(1S,3R,5R)-3-[(3-isopropyl-2-oxo-2,3-dihydrobenzoimidazole-1-carbonyl)amino]-8-aza-bicyclo[3.2.1]oct-8-yl}propyl ester]
- Kp value (permeation coefficient): 60 ×10⁻⁶ cm/s
